Structures can show the parent of a compound that is named as a salt.
What was measured:
human H4 receptor [1] = target: T1, human H4 receptor (Homo sapiens, UniProt Q9H3N8); experiment: [3H]Histamine binding assay on membranes of CHO cells stably expressing human H4 receptor
T1 construct: expressed in transfected cells
Method: CHO cells stably expressing human H4 receptor were grown until sub-confluence and centrifuged at 300 g 15 minutes at 4° C. Pellets were resuspended in buffer I Tris-HCl 50 mM, MgCl2 10 mM, NaCl 140 mM, pH=7.4 supplemented by a 1/50 dilution of a mix of protease inhibitors. The obtained suspension is stirred gently and submitted to a […] exerted through a syringe. The cell lysate is then centrifuged at 300 g 15 minutes at 4° C. in order to eliminate nucleus and cell scraps. The obtained supernatant was then centrifuged at 48000 g for 30 minutes at 4° C. The final pellet is resuspended in buffer I with a potter homogenizer. Aliquots were frozen in liquid nitrogen and stored until use at −80° C. Protein content is measured by the Bradford method.
Defreezed membranes were diluted at a final concentration of 20 μg/180 μL/well in a binding buffer containing 50 mM Tris/HCl, 0.5 mM EDTA, pH=7.4 and distributed in 96 well polystyrene microplate. [^3H] […] Non specific binding was estimated in the presence of 10 μM BP1.2404 (JNJ 7777120). The reaction was terminated by filtration through GF/B filters pre-soaked 2 hours at 4° C. in 1% polyethyleneimine. Filters were rinsed 3 times with 250 μl of ice cold incubation binding buffer.
The filter-bound radioactivity was measured in a liquid scintillation counter Microbeta TRILUX® with 50 μl of scintillation fluid.
The hH4 binding investigated by use of [^3H]

human H4 receptor [2] = target: T1, human H4 receptor; experiment: GTPγ[35S] binding assay on membranes of SH-SY5Y cells stably expressing human H4 receptor; assay type: biochemical
Method: SH-SY5Y cells stably expressing human H4 receptor are grown until sub-confluence and centrifuged at 300 g 15 minutes at 4° C. Pellets are resuspended in buffer I Tris-HCl 50 mM, MgCl2 10 mM, NaCl 140 mM, pH=7.4 supplemented by Leupeptin 10 μg/mL, Phenyl Methyl Sulphonyl Fluoride (PMSF) 0.1 mM, Aprotinin 2 μg/mL and Pepstatin 2 μM (or a 1/50 dilution of a mix of protease inhibitors). The obtained suspension is stirred gently and submitted to a […] exerted through a syringe. The cell lysate is then centrifuged at 300 g 15 minutes at 4° C. in order to eliminate nucleus and cell scraps. The obtained supernatant is then centrifuged at 48000 g for 30 minutes at 4° C. The final pellet is resuspended in buffer I with a potter homogenizer. Aliquots are frozen in liquid nitrogen and stored until use at −80° C. Protein content is measured by the Bradford method.
Defreezed membranes are diluted at a final concentration of 5 μg/180 μL/well in buffer I supplemented by GDP 10 μM and distributed in 96 well polystyrene microplate. GTPγ [^35S] labelled ligand (0.2-0.3 nM) is added for additional 30 minutes. After transfer in a Millipore GF/C HTS® microplate, the filtration of the rectional mix is followed by a three times 250 μl wash to stop the reaction.
The filter-bound radioactivity is measured in a liquid scintillation counter Microbeta TRILUX® with 50 μl of scintillation fluid.
Results are expressed with IC50 and Ki values.

T1 sequence (Q9H3N8 whole entry): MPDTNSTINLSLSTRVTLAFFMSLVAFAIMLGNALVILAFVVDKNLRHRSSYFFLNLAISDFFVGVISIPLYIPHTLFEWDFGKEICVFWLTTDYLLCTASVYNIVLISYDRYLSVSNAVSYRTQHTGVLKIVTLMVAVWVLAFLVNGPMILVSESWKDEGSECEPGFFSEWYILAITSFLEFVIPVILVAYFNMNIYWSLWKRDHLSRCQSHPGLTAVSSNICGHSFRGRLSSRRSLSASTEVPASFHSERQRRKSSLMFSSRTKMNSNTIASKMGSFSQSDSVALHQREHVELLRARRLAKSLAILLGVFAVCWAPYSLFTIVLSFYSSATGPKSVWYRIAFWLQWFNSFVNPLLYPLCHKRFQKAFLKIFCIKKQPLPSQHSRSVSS

Row | SMILES | melting point [°C] | Ki (human H4 receptor [1]) [nM] | IC50 (human H4 receptor [2]) [nM]
1 | CN1CCC(OC(c2ccccn2)c2ccccc2O)CC1 (stereo not shown) (as salt: oxalate) [Example 19, 2-[(1-Methylpiperidin-4-yloxy)pyridin-2-ylmethyl]phenol, oxalate] | 70 | – | –
2 | CN1CCC(OC(c2ccccn2)c2cc(OC(F)(F)F)ccc2F)CC1.O=C(O)C(=O)O.O=C(O)C(=O)O (stereo not shown) [Example 1, 2-[(2-Fluoro-5-trifluoromethoxyphenyl)(1-methylpiperidin-4-yloxy)methyl]pyridine, dioxalate] | 45 | < 300 | < 300
3 | Cc1ccc(C(OC2CCN(C)CC2)c2ccc(Cl)cn2)c(F)c1.O=C(O)C(=O)O (stereo not shown) [Example 2, 5-Chloro-2-[(2-fluoro-4-methylphenyl)(1-methylpiperidin-4-yloxy)methyl]pyridine, oxalate] | 165 | < 30 | < 300
4 | Cc1ccc(C(OC2CCN(C)CC2)c2ccccn2)c(F)c1.O=C(O)C(=O)O.O=C(O)C(=O)O (stereo not shown) [Example 3, 2-[(2-Fluoro-4-methylphenyl)(1-methylpiperidin-4-yloxy)methyl]pyridine, dioxalate] | 59 | < 300 | –
5 | CN1CCC(OC(c2ccc(Cl)cn2)c2cc(OC(F)(F)F)ccc2F)CC1.O=C(O)C(=O)O (stereo not shown) [Example 4, 5-Chloro-2-[(2-fluoro-5-trifluoromethoxyphenyl)(1-methylpiperidin-4-yloxy)methyl]pyridine, oxalate] | 75 | < 300 | < 300
6 | CN1CCC(OC(c2cccc(C#CCCCCN)c2)c2ccccn2)CC1 (stereo not shown) [Example 5, 6-{3-[(1-Methylpiperidin-4-yloxy)pyridin-2-ylmethyl]phenyl}hex-5-ynylamine, oxalate] | – | < 300 | < 300
7 | CN1CCC(OC(c2ccncc2)c2cc(OC(F)(F)F)ccc2F)CC1.O=C(O)C(=O)O.O=C(O)C(=O)O (stereo not shown) [Example 6, 4-[(2-Fluoro-5-trifluoromethoxyphenyl)(1-methylpiperidin-4-yloxy)methyl]pyridine, dioxalate] | 61 | < 300 | –
8 | Cc1ccnc(C(OC2CCN(C)CC2)c2cc(OC(F)(F)F)ccc2F)c1.O=C(O)C(=O)O.O=C(O)C(=O)O (stereo not shown) [Example 8, 2-[(2-Fluoro-5-trifluoromethoxyphenyl)(1-methylpiperidin-4-yloxy)methyl]-4-methylpyridine, dioxalate] | 43 | < 300 | –
9 | CN1CCC(OC(c2ccc(Cl)cc2)c2ccc(Cl)cn2)CC1.O=C(O)C(=O)O (stereo not shown) [Example 9, 5-Chloro-2-[(4-chlorophenyl)(1-methylpiperidin-4-yloxy)methyl]pyridine, oxalate] | 190 | < 300 | –
10 | CN1CCC(OC(c2ccc(F)cn2)c2cc(OC(F)(F)F)ccc2F)CC1.O=C(O)C(=O)O (stereo not shown) [Example 11, 5-Fluoro-2-[(2-fluoro-5-trifluoromethoxyphenyl)(1-methylpiperidin-4-yloxy)methyl]pyridine, oxalate] | 113 | < 1000 | –
11 | COc1cccc(C(OC2CCN(C)CC2)c2ccc(Cl)cn2)c1.O=C(O)C(=O)O (stereo not shown) [Example 12, 5-Chloro-2-[(3-methoxyphenyl)(1-methylpiperidin-4-yloxy)methyl]pyridine, oxalate] | 175 | < 1000 | –
12 | CN1CCC(OC(c2cccc(I)c2)c2ccc(Cl)cn2)CC1.O=C(O)C(=O)O (stereo not shown) [Example 13, 5-Chloro-2-[(3-iodophenyl)(1-methylpiperidin-4-yloxy)methyl]pyridine, oxalate] | 130 | < 300 | –
13 | Cc1ccc(C(OC2CCN(C)CC2)c2cc(C(F)(F)F)ccn2)c(F)c1.O=C(O)C(=O)O (stereo not shown) [Example 14, 2-[(2-Fluoro-4-methylphenyl)(1-methylpiperidin-4-yloxy)methyl]-4-trifluoromethylpyridine, oxalate] | 104 | < 300 | –
14 | CN1CCC(OC(c2ccc(F)cn2)c2ccc(F)c(F)c2O)CC1 (stereo not shown) [Example 15, 2,3-Difluoro-6-[(5-fluoropyridin-2-yl)(1-methylpiperidin-4-yloxy)methyl]phenol] | 73 | < 1000 | –
15 | CN1CCC(OC(c2ccc(Cl)cn2)c2ccc(F)c(F)c2O)CC1 (stereo not shown) [Example 16, 6-[(5-Chloropyridin-2-yl)(1-methylpiperidin-4-yloxy)methyl]-2,3-difluorophenol] | 68 | < 300 | –
16 | CCOC(=O)NCCCCC#Cc1cccc(C(OC2CCN(C)CC2)c2ccccn2)c1.O=C(O)C(=O)O (stereo not shown) [Example 17, (6-{3-[(1-Methylpiperidin-4-yloxy)pyridin-2-ylmethyl]phenyl}hex-5-ynyl)carbamic acid ethyl ester, oxalate] | 77 | < 1000 | –
17 | CN1CCC(OC(c2ccccn2)c2ccccc2O)CC1 (stereo not shown) [Example 19, 2-[(1-Methylpiperidin-4-yloxy)pyridin-2-ylmethyl]phenol, oxalate] | – | < 300 | –
18 | CN1CCC(OC(c2ccc(F)cn2)c2ccc(F)cc2O)CC1.O=C(O)C(=O)O (stereo not shown) [Example 20, 5-Fluoro-2-[(5-fluoropyridin-2-yl)(1-methylpiperidin-4-yloxy)methyl]phenol, oxalate] | 105 | < 300 | –
19 | Cc1ccc(C(OC2CCN(C)CC2)c2ccc(F)cn2)c(O)c1F (stereo not shown) [Example 21, 2-Fluoro-6-[(5-fluoropyridin-2-yl)(1-methylpiperidin-4-yloxy)methyl]-3-methylphenol] | 62 | < 300 | –
20 | Cc1ccc(C(OC2CCN(C)CC2)c2ccc(Cl)cn2)c(O)c1F (stereo not shown) [Example 22, 6-[(5-Chloropyridin-2-yl)(1-methylpiperidin-4-yloxy)methyl]-2-fluoro-3-methylphenol] | 67 | < 30 | –
21 | CN1CCC(OC(c2ccc(Cl)cn2)c2ccc(F)cc2O)CC1 (stereo not shown) [Example 23, 2-[(5-Chloropyridin-2-yl)(1-methylpiperidin-4-yloxy)methyl]-5-fluorophenol] | 57 | < 30 | –
22 | Cc1ccc(C(OC2CCN(C)CC2)c2ccc(F)cn2)c(O)c1.O=C(O)C(=O)O (stereo not shown) [Example 24, 2-[(5-Fluoropyridin-2-yl)(1-methylpiperidin-4-yloxy)methyl]-5-methylphenol, oxalate] | 77 | < 30 | –
23 | Cc1ccc(C(OC2CCN(C)CC2)c2ccc(Cl)cn2)c(O)c1.O=C(O)C(=O)O (stereo not shown) [Example 25, 2-[(5-Chloropyridin-2-yl)(1-methylpiperidin-4-yloxy)methyl]-5-methylphenol, oxalate] | 77 | < 30 | –
24 | Cc1ccc(C(OC2CCN(C)CC2)c2cc(F)ccn2)c(O)c1F (stereo not shown) [Example 26, 2-Fluoro-6-[(4-fluoropyridin-2-yl)(1-methylpiperidin-4-yloxy)methyl]-3-methylphenol] | 64 | < 300 | –
25 | Cc1ccc(C(OC2CCN(C)CC2)c2cccc(I)c2)cc1.O=C(O)C(=O)O (stereo not shown) [Example 27, 4-[(3-Iodophenyl)-p-tolylmethoxy]-1-methylpiperidine, oxalate] | 60 | < 1000 | –
26 | Cc1ccc(C(OC2CCN(C)CC2)c2ccc3ccccc3c2)c(F)c1.O=C(O)C(=O)O (stereo not shown) [Example 29, 4-[(2-Fluoro-4-methylphenyl)naphthalen-2-yl-methoxy]-1-methylpiperidine, oxalate] | 122 | – | < 1000
27 | Cc1ccc(C(OC2CCN(C)CC2)c2ccc(Cl)cc2)c(F)c1.O=C(O)C(=O)O (stereo not shown) [Example 34, 4-[(4-Chlorophenyl)(2-fluoro-4-methylphenyl)methoxy]-1-methylpiperidine, oxalate] | 165 | < 300 | –
28 | CN1CCC(OC(c2ccc(Cl)cc2)c2cccc(C#CCCCCN)c2)CC1 (stereo not shown) [Example 36, 6-{3-[(4-Chlorophenyl)(1-methylpiperidin-4-yloxy)methyl]phenyl}hex-5-ynylamine, dioxalate] | – | < 30 | < 30
29 | CN1CCC(OC(c2cccc(I)c2)c2ccccn2)CC1 (stereo not shown) [Example 37, 2-[(3-Iodophenyl)(1-methylpiperidin-4-yloxy)methyl]pyridine, oxalate] | – | < 1000 | –

From patent US9242959B2, “(Aza)benzhydryl ether derivatives, their process of preparation and their use as H4-receptor ligands for therapeutical applications” (BIOPROJET, priority 2012, dated 2016)
